Earlier results on three compounds are cited in patent US20080138404A1, “EXTENDED RELEASE FORMULATIONS OF CARVEDILOL” (BIOVAIL LABORATORIES INTERNATIONAL S.R.L., priority 2006, published 2008).

The solubility is how much of the substance goes into solution per volume.

Series [1] relates to plasma protein, primarily albumin. Conditions: following oral administration in healthy subjects.
The conditions of series [2]: man.
Experiment in series [3]: not given
This is another data set of the same source.

As for `COc1ccccc1OCCNCC(O)COc1cccc2[nH]c3ccccc3c12` (racemic) [Carvedilol], the “bound to plasma protein” value in series [1] was “more than 98%”. In addition, the solubility (above a pH of 9.0) was < 1 µg/mL. Besides, under “pH 7, room temperature”, the saturation solubility entry is listed as “about 23 μg/ml”. Further, the “colonic absorption relative to oral administration” value in series [2] (25 mg carvedilol gelatin suspension) was “about 7%”. Besides, in series [2], the “relative absorption in the ileum in comparison with oral administration” value was 28% and the “relative absorption in the jejunum in comparison with oral administration” value is 56%. Further, the “immediate release dose recovered as unchanged drug in urine” value in series [3] (in vivo) is listed as “less than 2%”. Besides, the “terminal (elimination) half-life” value in series [3] (oral, immediate release) was 7 to 10 h.
For the compound `COc1ccccc1OCCNC[C@H](O)COc1cccc2[nH]c3ccccc3c12` [S(−) Carvedilol], the “increase of plasma levels in poor metabolisers” value in series [3] (in vivo) is given as 20-25%.
For `COc1ccccc1OCCNC[C@@H](O)COc1cccc2[nH]c3ccccc3c12` [R(+) Carvedilol], the “higher plasma concentration in poor metabolisers compared to extensive metabolisers” value in series [3] (in vivo) is on record as 2-3 fold. Moreover, in series [3] (in vivo, po), the “plasma levels of R(+) relative to S(−)” value is 2-3 times.
